Measured values published in US20170306409A1, “CANCER PATIENT SELECTION FOR ADMINISTRATION OF WNT SIGNALING INHIBITORS USING RNF43 MUTATION STATUS” (NOVARTIS AG, priority 2012, published 2017).
Like-named read-outs stand apart in the source and are kept apart here.

Legend:
Assay type in all cases: cell-based, human
[1] = tested on: PA-TU-8988T; assay: cell line proliferation assay (Cell Titer Glo)
Procedure: (§1) The sensitivity of pancreatic cells to LGK974 treatment were tested in a cellular proliferation assay in vitro. Twenty four human pancreatic cancer cell lines were treated with or without LGK974. Cellular proliferation data was generated in 384 well format. Cells were harvested and resuspended in their appropriate growth medium at a density of 1.5×10^4 cells per mL. […] Plates were then transferred to incubators on the ACP-1 system (37° C., 5% CO2) and cells were allowed to attach overnight. […] Following compound addition, plates were returned to the incubator for 120 hours. The assay plates were read with the addition of 10 μL of 1× Cell Titer Glo (Promega G7573) according to the manufacturer's instructions. Plates were then incubated at room temperature for ten minutes and read on the integrated Perkin Elmer Viewlux (2 second exposure, 2× bin, high sensitivity). The raw data was normalized using the DMSO control wells within each plate and the curve fitting for IC50 determination was performed. Cell growth was measured five days later with Cell Titer Glo (Promega). […] As shown in TABLE 4 and Example 4, all four cell lines harbor RNF43 loss-of-function (LOF) mutations

[2] = tested on: TCC-PAN2; assay: cell line proliferation assay (Cell Titer Glo); conditions: for IC50: Cell Titer Glo, read-out: LGK974 IC50s in cell line proliferation assay
Procedure: as §1

[3] = tested on: KP-3; assay: cell line proliferation assay (Cell Titer Glo)
Procedure: as §1

[4] = tested on: SW1990; assay: cell line proliferation assay (Cell Titer Glo)
Procedure: as §1

[5] = tested on: SUIT-2; assay: cell line proliferation assay (Cell Titer Glo)
Procedure: as §1

[6] = tested on: Panc1; assay: cell line proliferation assay (Cell Titer Glo)
Procedure: as §1

[7] = tested on: PSN-1; assay: cell line proliferation assay (Cell Titer Glo)
Procedure: as §1

[8] = tested on: KP-1NL; assay: cell line proliferation assay (Cell Titer Glo)
Procedure: as §1

[9] = tested on: HUP-T3; assay: cell line proliferation assay (Cell Titer Glo)
Procedure: as §1

[10] = tested on: PK1; assay: soft agar assay; conditions: 1 μM LGK974
Procedure: (§2) Further, LGK974 induced the expression of differentiation marker MUC2, MUC5A/C in RNF43 mutant cells. LGK974 blocked EDU incorporation in RNF43 mutant cell lines, so Wnt inhibition in these cells leads to cell cycle arrest. LGK974-induced growth inhibition and cellular differentiation of RNF43 mutant cells are also obvious using Ki67 staining (anti-Ki67 (SP6) from Vector Laboratories, Burlingame, Calif., USA 94010) and Alcian Blue staining.
(§3) For soft agar assay, cells were suspended in 250 μl of 0.3% low melting agarose (Lonza) in DMEM containing 10% FBS, and plated onto 250 μl of solidified 0.8% agarose containing DMEM in 48-well culture plates at a density of 5,000-10,000 cells per well. 250 μl of growth medium were added on top of the cells after plate was cooled at Rt for 30 minutes. The plate was then incubated at 37° C. in a humidified atmosphere containing 5% CO2. The cells were treated with fresh growth medium containing DMSO or 1 μM LGK974 every 3-4 days. When colonies reached desirable size, photographs were taken and colonies were stained with AlamarBlue (from Invitrogen, Life Technologies, Grand Island, N.Y., USA 14072) according to the manufacturer's instruction. These experiments were repeated three times, and at least four wells were replicated each time for each condition.

[11] = tested on: PaTu-8988S; assay: soft agar assay; conditions: 1 μM LGK974
Procedure: as §2, §3

[12] = tested on: HPAFII; assay: soft agar assay; conditions: 1 μM LGK974
Procedure: as §2, §3

[13] = Homo sapiens, 120 hours, Cell Titer Glo, read-out: LGK974 IC50s in cell line proliferation assay

## Cc1cc(-c2ncc(CC(=O)Nc3ccc(-c4cnccn4)cn3)cc2C)ccn1 [LGK974, 2-[5-methyl-6-(2-methylpyridin-4-yl)pyridin-3-yl]-N-[5-(pyrazin-2-yl)pyridin-2-yl]acetamide]
[1]
  Inhibition fold change (1-Treated/Control): 0.00
[1]; Homo sapiens, PaTu 8988t, 120 hours, Cell Titer Glo, read-out: LGK974 IC50s in cell line proliferation assay
  IC50: > 2 µM
[2]
  Inhibition fold change (1-Treated/Control): 0.02
[2]; 120 hours
  IC50: > 2 µM
[2]; Homo sapiens, 120 h
  IC50: > 1.7 µM
[3]
  Inhibition fold change (1-Treated/Control): 0.02
[3]; [13]
  IC50: > 2 µM
[4]
  Inhibition fold change (1-Treated/Control): 0.03
[4]; [13]
  IC50: > 2 µM
[5]
  Inhibition fold change (1-Treated/Control): 0.00
[5]; [13]
  IC50: > 2 µM
[6]
  Inhibition fold change (1-Treated/Control): 0.00
[6]; Homo sapiens, PANC-1, 120 hours, Cell Titer Glo, read-out: LGK974 IC50s in cell line proliferation assay
  IC50: > 2 µM
[7]
  Inhibition fold change (1-Treated/Control): 0.06
[7]; Homo sapiens, PSN1, 120 hours, Cell Titer Glo, read-out: LGK974 IC50s in cell line proliferation assay
  IC50: > 2 µM
[8]
  Inhibition fold change (1-Treated/Control): 0.00
[8]; [13]
  IC50: > 2 µM
[9]
  Inhibition fold change (1-Treated/Control): 0.07
[9]; [13]
  IC50: > 2 µM
[10]
  proliferation in soft agar assay: not
[11]
  proliferation in soft agar assay: strongly inhibited
[12]
  proliferation in soft agar assay: strongly inhibited
